Assay results: ChEMBL document CHEMBL6109101, “Synthesis and bioactivity of cyclic peptide GG-8-6 analogues as anti-hepatocellular carcinoma agents” (Eur J Med Chem, 2025)
The source made the active and inactive calls. No cut-off for these calls is given here.

Legend:
HCCLM3 [1] = experiment: Antiproliferative activity against human HCCLM3 cells assessed as reduction in intracellular ATP level at 10 uM incubated for 48 hrs by luminometer analysis relative to control; type: functional; parameters: scale not given: the % may be the effect or the level left
MHCC97H [2] = experiment: Antitumor activity against human MHCC97H cells xenografted in nude mouse assessed as tumor growth inhibition at 10 mg/kg, po administered daily for 3 weeks relative to control; type: functional; details: 504 h, read-out: TGI
MHCC97H [3] = experiment: Antitumor activity against human MHCC97H cells xenografted in nude mouse assessed as tumor growth inhibition at 5 mg/kg, po administered daily for 3 weeks relative to control; type: functional; details: 504 h, read-out: TGI
MHCC97H [4] = experiment: Antiproliferative activity against human MHCC97H cells assessed as reduction in intracellular ATP level at 10 uM incubated for 48 hrs by luminometer analysis relative to control; type: functional; parameters: scale not given: the % may be the effect or the level left
MHCC97H [5] = experiment: Antitumor activity against human MHCC97H cells xenografted in nude mouse assessed as tumor weight at 5 mg/kg, po administered daily for 3 weeks (reference value: 1.667g); type: functional
Huh-7 [6] = experiment: Antiproliferative activity against human Huh-7 cells assessed as reduction in intracellular ATP level at 10 uM incubated for 48 hrs by luminometer analysis relative to control; type: functional; parameters: scale not given: the % may be the effect or the level left
HepG2 [7] = experiment: Antiproliferative activity against human HepG2 cells assessed as reduction in intracellular ATP level at 10 uM incubated for 48 hrs by luminometer analysis relative to control; type: functional; parameters: scale not given: the % may be the effect or the level left
MHCC97H [8] = experiment: Antitumor activity against human MHCC97H cells xenografted in nude mouse assessed as tumor weight at 10 mg/kg, po administered daily for 3 weeks (reference value: 1.667g); type: functional
HepG2 [9] = experiment: Cytotoxicity against human HepG2 cells assessed as inhibition of cell proliferation incubated for 48 hrs by MTT assay; type: functional, cell-based; details: HepG2, 48 h
[10] = Toxicity in nude mouse implanted with human MHCC97H cells assessed as body weight at 5 mg/kg, po administered daily for 3 weeks and measured at day 22 (reference value: 26.38 g); type: organism-based; details: in vivo, 1032 h, time 43 day
[11] = Toxicity in nude mouse implanted with human MHCC97H cells assessed as body weight at 10 mg/kg, po administered daily for 3 weeks and measured at day 22 (reference value: 26.38 g); type: organism-based; details: in vivo, 1032 h, time 43 day
[12] = Toxicity in nude mouse implanted with human MHCC97H cells assessed as spleen damage at 5 to 15 mg/kg, po administered daily for 3 weeks by H and E staining based analysis; type: organism-based; details: in vivo, 504 h, dose 5-15 mg/kg
[13] = Toxicity in nude mouse implanted with human MHCC97H cells assessed as lung damage at 5 to 15 mg/kg, po administered daily for 3 weeks by H and E staining based analysis; type: organism-based; details: in vivo, 504 h, dose 5-15 mg/kg
Huh-7 [14] = experiment: Cytotoxicity against human Huh-7 cells assessed as inhibition of cell proliferation incubated for 48 hrs by MTT assay; type: functional, cell-based; details: Huh-7, 48 h
[15] = Toxicity in nude mouse implanted with human MHCC97H cells assessed as body weight at 5 mg/kg, po administered daily for 3 weeks and measured immediately (reference value: 25.05 g); type: organism-based; details: in vivo, 504 h
[16] = Toxicity in nude mouse implanted with human MHCC97H cells assessed as body weight at 10 mg/kg, po administered daily for 3 weeks and measured immediately (reference value: 25.05 g); type: organism-based; details: in vivo, 504 h
MHCC97H [17] = experiment: Cytotoxicity against human MHCC97H cells assessed as inhibition of cell proliferation incubated for 48 hrs by MTT assay; type: functional, cell-based
[18] = Toxicity in nude mouse implanted with human MHCC97H cells assessed as liver damage at 5 to 15 mg/kg, po administered daily for 3 weeks by H and E staining based analysis; type: organism-based; details: in vivo, 504 h, dose 5-15 mg/kg
[19] = Toxicity in nude mouse implanted with human MHCC97H cells assessed as body weight at 15 mg/kg, po administered daily for 3 weeks and measured immediately (reference value: 25.05 g); type: organism-based; details: in vivo, 504 h
[20] = Toxicity in nude mouse implanted with human MHCC97H cells assessed as heart damage at 5 to 15 mg/kg, po administered daily for 3 weeks by H and E staining based analysis; type: organism-based; details: in vivo, 504 h, dose 5-15 mg/kg
[21] = Toxicity in nude mouse implanted with human MHCC97H cells assessed as kidney damage at 5 to 15 mg/kg, po administered daily for 3 weeks by H and E staining based analysis; type: organism-based; details: in vivo, 504 h, dose 5-15 mg/kg
HCCLM3 [22] = experiment: Cytotoxicity against human HCCLM3 cells assessed as inhibition of cell proliferation incubated for 48 hrs by MTT assay; type: functional, cell-based; details: HCCLM3, 48 h
[23] = Toxicity in nude mouse implanted with human MHCC97H cells assessed as body weight at 15 mg/kg, po administered daily for 3 weeks and measured at day 22 (reference value: 26.38 g); type: organism-based; details: in vivo, 1032 h, time 43 day
HCCLM3 [24] = experiment: Cytotoxicity against human HCCLM3 cells assessed as cell viability incubated at 12 to 48 hrs hrs by MTT assay; type: functional, cell-based; details: dose <= 40.0 µM, time 12-48 hrs
HCCLM3 [25] = experiment: Cytotoxicity against human HCCLM3 cells assessed as cell viability up to 40 uM by MTT assay; type: functional, cell-based; details: time 12-48 hrs
HCCLM3 [26] = experiment: Cytotoxicity against human HCCLM3 cells assessed as cell viability up to 40 uM measured at 24 to 48 hrs by MTT assay; type: functional, cell-based; details: time 24-48 hrs
MHCC97H [27] = experiment: Cytotoxicity against human MHCC97H cells assessed as reduction in cell viability at 40 uM measured at 48 hrs by MTT assay; type: functional, cell-based
HCCLM3 [28] = experiment: Cytotoxicity against human HCCLM3 cells assessed as reduction in cell viability at 40 uM by MTT assay; type: functional, cell-based; details: time 48.0 hrs
MHCC97H [29] = experiment: Cytotoxicity against human MHCC97H cells assessed as cell viability up to 40 uM measured at 24 to 48 hrs by MTT assay; type: functional, cell-based; details: time 24-48 hrs
HCCLM3 [30] = experiment: Cytotoxicity against human HCCLM3 cells assessed as reduction in cell viability up to 40 uM measured at 48 hrs by MTT assay; type: functional, cell-based
HCCLM3 [31] = experiment: Cytotoxicity against human HCCLM3 cells assessed as reduction in cell viability at 40 uM measured at 48 hrs by MTT assay; type: functional, cell-based
HCCLM3 [32] = experiment: Cytotoxicity against human HCCLM3 cells assessed as cell viability up to 40 uM measured at 12 hrs by MTT assay; type: functional, cell-based
MHCC97H [33] = experiment: Cytotoxicity against human MHCC97H cells assessed as reduction in cell viability up to 40 uM measured at 48 hrs by MTT assay; type: functional, cell-based
MHCC97H [34] = experiment: Cytotoxicity against human MHCC97H cells assessed as cell viability up to 40 uM by MTT assay; type: functional, cell-based; details: time 12-48 hrs
MHCC97H [35] = experiment: Antitumor activity against human MHCC97H cells xenografted in nude mouse assessed as increase in apoptotic cells at 15 mg/kg, po administered daily for 3 weeks by TUNEL staining based assay; type: functional, organism-based
MHCC97H [36] = experiment: Cytotoxicity against human MHCC97H cells assessed as cell viability incubated at 12 to 48 hrs hrs by MTT assay; type: functional, cell-based; details: dose <= 40.0 µM, time 12-48 hrs
MHCC97H [37] = experiment: Cytotoxicity against human MHCC97H cells assessed as reduction in cell viability at 40 uM by MTT assay; type: functional, cell-based; details: time 48.0 hrs
MHCC97H [38] = experiment: Cytotoxicity against human MHCC97H cells assessed as cell viability up to 40 uM measured at 12 hrs by MTT assay; type: functional, cell-based
[39] = Toxicity in nude mouse implanted with human MHCC97H cells assessed as liver damage at 5 to 10 mg/kg, po administered daily for 3 weeks by H and E staining based analysis; type: organism-based; details: in vivo, 504 h, dose 5-10 mg/kg
[40] = Toxicity in nude mouse implanted with human MHCC97H cells assessed as kidney damage at 5 to 10 mg/kg, po administered daily for 3 weeks by H and E staining based analysis; type: organism-based; details: in vivo, 504 h, dose 5-10 mg/kg
[41] = Toxicity in nude mouse implanted with human MHCC97H cells assessed as spleen damage at 5 to 10 mg/kg, po administered daily for 3 weeks by H and E staining based analysis; type: organism-based; details: in vivo, 504 h, dose 5-10 mg/kg
[42] = Toxicity in nude mouse implanted with human MHCC97H cells assessed as lung damage at 5 to 10 mg/kg, po administered daily for 3 weeks by H and E staining based analysis; type: organism-based; details: in vivo, 504 h, dose 5-10 mg/kg
[43] = Toxicity in nude mouse implanted with human MHCC97H cells assessed as heart damage at 5 to 10 mg/kg, po administered daily for 3 weeks by H and E staining based analysis; type: organism-based; details: in vivo, 504 h, dose 5-10 mg/kg

Q: Which Activity (HCCLM3 [1]) does the source give for `CC[C@H](C)[C@@H]1NC(=O)[C@@H]2CCCN2C(=O)[C@H](CC(C)C)NC(=O)[C@H](COC(C)(C)C)NC(=O)[C@H](CC(C)C)NC(=O)[C@H](C(C)C)NC(=O)[C@H](CC(C)C)NC(=O)[C@H](CC(C)C)NC(=O)[C@H](CC(C)C)NC1=O` [listing 1 of 2 here] here?
A: 99.9%

Q: And the inhibition in vivo at 10 mg/kg (MHCC97H [2])?
A: 84.3%

Q: And the inhibition in vivo at 5 mg/kg (MHCC97H [3])?
A: 68.9%

Q: And the Activity (MHCC97H [4])?
A: 87.8%

Q: What about the Activity (MHCC97H [5]) of the same compound?
A: 0.052 g

Q: What about the Activity (Huh-7 [6]) of the same compound?
A: 81.8%

Q: What about the Activity (HepG2 [7]) of the same compound?
A: 41.1%

Q: And the Activity (MHCC97H [8])?
A: 0.262 g

Q: Which results are given for `CC[C@H](C)[C@@H]1NC(=O)[C@@H]2CCCN2C(=O)[C@H](CC(C)C)NC(=O)[C@H](CO)NC(=O)[C@H](CC(C)C)NC(=O)[C@H](C(C)C)NC(=O)[C@H](CC(C)C)NC(=O)[C@H](CC(C)C)NC(=O)[C@H](CC(C)C)NC1=O`?
A: IC50 (HepG2 [9]): > 100 µM; Activity [10]: 26.38 g; Activity [11]: 26.3 g; Activity [12]: Non-toxic; Activity [13]: Non-toxic; IC50 (Huh-7 [14]): > 100 µM; Activity [15]: 25.43 g; Activity [16]: 25 g; IC50 (MHCC97H [17]): 33.3 µM; Activity [18]: Non-toxic; Activity [19]: 24.9 g; Activity [20]: Non-toxic; Activity [21]: Non-toxic; IC50 (HCCLM3 [22]): 35.7 µM; Activity [23]: 26.3 g

Q: Which results are given for `CC[C@@H](C)[C@H]1NC(=O)[C@@H]2CCCN2C(=O)[C@@H](CC(C)C)NC(=O)[C@H](CO)NC(=O)[C@@H](CC(C)C)NC(=O)[C@H](C(C)C)NC(=O)[C@H](CC(C)C)NC(=O)[C@H](CC(C)C)NC(=O)[C@H](CC(C)C)NC1=O`?
A: Activity (HCCLM3 [24]): Dose-dependent-effect; Activity (HCCLM3 [25]): Time-dependent-effect; Activity (HCCLM3 [26]): Active; Activity (MHCC97H [27]): Active; Activity (HCCLM3 [28]): Time-dependent-effect; Activity (MHCC97H [29]): Active; Activity (HCCLM3 [30]): Active; Activity (HCCLM3 [31]): Active; Activity (HCCLM3 [32]): Active; Activity (MHCC97H [33]): Active; Activity (MHCC97H [34]): Time-dependent-effect; Activity (MHCC97H [35]): Active; Activity (MHCC97H [36]): Dose-dependent-effect; Activity (MHCC97H [37]): Time-dependent-effect; Activity (MHCC97H [38]): Active

Q: Which IC50 (HepG2 [9]) does the source give for `CC[C@H](C)[C@@H]1NC(=O)[C@@H]2CCCN2C(=O)[C@H](CC(C)C)NC(=O)[C@H](COC(C)(C)C)NC(=O)[C@H](CC(C)C)NC(=O)[C@H](C(C)C)NC(=O)[C@H](CC(C)C)NC(=O)[C@H](CC(C)C)NC(=O)[C@H](CC(C)C)NC1=O` [listing 2 of 2 here] here?
A: 3.29 µM

Q: What about the Activity [10] of the same compound?
A: 26.7 g

Q: What about the Activity [11] of the same compound?
A: 26.43 g

Q: And the IC50 (Huh-7 [14])?
A: 3.29 µM

Q: And the Activity [15]?
A: 25.98 g

Q: And the Activity [16]?
A: 25.6 g

Q: And the Activity [39]?
A: Non-toxic

Q: And the IC50 (MHCC97H [17])?
A: 4.1 µM

Q: And the Activity [40]?
A: Non-toxic

Q: What about the Activity [41] of the same compound?
A: Non-toxic

Q: And the Activity [42]?
A: Non-toxic

Q: What about the Activity [43] of the same compound?
A: Non-toxic

Q: And the IC50 (HCCLM3 [22])?
A: 4.6 µM
